What all share (format): biochemical
One assay addresses hyaluronidase (Bos taurus, UniProt Q2YDK3). The assay is described as follows: Hyaluronidase inhibition test. Particulars: for hyaluronidase inhibitory activity (in words): statement in the text; for inhibition at 20 µg/mL: test concentration 20 μg/ml; for inhibition at 20 µg/mL / inhibition at 40 µg/mL / inhibition at 80 µg/mL: read-out: Percent hyaluronidase inhibition (%); for inhibition at 40 µg/mL: test concentration 40 μg/ml. As for the experimental part: Tests for hyaluronidase inhibition of the extract prepared in Example 2 (hereinafter referred to as the “blue rose petal extract”), the HP-20 column fractions of the blue rose petal extract (60% acetonitrile fractions) and rosadelphin A1 were carried out in accordance with a modified version of the method described by Yumie Maeda et al. in Shokukin Eiseigaku Zasshi (Journal of the Food Hygiene Society of Japan) 31(3), 233-237 (1990). Hyaluronic acid is decomposed by hyaluronidase to give N-acetylhexosamine. To measure the hyaluronidase inhibitory activity, the reducing terminal N-acetylglucosamine was quantified in terms of absorbance due to color development as labeled by p-dimethylaminobenzaldehyde (product of Wako Pure Chemical Industries, Ltd. which is hereinafter abbreviated as p-DAB).
A sample solution (40 μL) in 10% DMSO was mixed with 20 μL of 1000 U/mL hyaluronidase (product of Sigma) dissolved in 0.1 M acetate buffer (pH 4.0) and the mixture was preheated at 37° C. for 20 minutes. To the heated mixture, 40 μL of 0.5 mg/mL Compound 48/80 (product of Sigma) dissolved in the same buffer was added and the resulting mixture was allowed to settle at 37° C. for 20 minutes undisturbed until the hyaluronidase was activated. To the solution, 100 μL of a solution of 0.8 mg/mL potassium hyaluronate was added to give a final concentration of 0.4 mg/mL and reaction was effected at 37° C. for 40 minutes; thereafter, 40 μL of 0.4 N sodium hydroxide in solution was added and the mixture was cooled with ice to quench the reaction. To the reaction mixture, 40 μL of 0.8 M boric acid in solution adjusted to pH 9.1 with 6 N NaOH was added and the resulting mixture was boiled at 100° C. for 3 minutes. The mixture was then cooled to room temperature in ice bath; to the cooled mixture, 1.2 mL of 10 mg/mL p-dimethylaminobenzaldehyde (p-DAB) in solution was added while it was shielded from light and after reaction was effected at 37° C. for 20 minutes, the absorbance at 585 nm (A585) was measured. The hyaluronidase inhibitory activity of the sample was expressed in terms of percent inhibition calculated from the following formula: Percent inhibition (%)={1−(a−b)/(c−d)}×100
a: A585 of the sample solution to which the enzyme was added
b: A585 of the sample solution to which no enzyme was added
c: A585 of the control solution to which the enzyme was added
d: A585 of the control solution to which no enzyme was added.
A positive control was prepared by adding not the sample solution, but 800 μg/ml (1.56 mM as molar concentration) of sodium chromoglycate (product of Sigma which is hereinafter abbreviated as DSCG) in an amount of 40 μL to give a test concentration of 160 μg/ml.

In another assay the test system is collagenase Type IV. The assay is described as follows: Collagenase inhibition test. The conditions noted are these: for collagenase inhibitory activity (in words): statement in the text. As for the experimental part:
The blue rose petal extract, fractions thereof as products of treatment on a column (60% acetonitrile fractions), rosadelphin A1, rosacyanin A1, and tellimagrandin 1 were subjected to a collagenase inhibition test in accordance with a modified version of the method described in a document (Wunsch et al., Hoppe Seylers Z Physiol Chem., 333, 149-51 (1963)). For details, see below.
An enzyme solution was prepared by dissolving […] of collagenase Type IV (product of Sigma) in 1 mL of dissolved water to give a concentration of 100 μg/mL (55.1 units/mL) and diluted 50 folds just before use. A substrate solution was prepared by dissolving PZ-peptide (4-phenylazo-benzyloxycarbonyl-Pro-Leu-Gly-Pro-D-Arg-OH) (Pz-Pro-Leu-Gly-Pro-D-Arg-OH; product of Sigma) in a […] calcium chloride containing tris-HCl buffer (pH 7.1) to give a concentration of 0.5 μg/mL. To 20 μL of a solution of sample dissolved in 10% DMSO, 20 μL of the enzyme solution and 160 μL of the substrate solution were added and the mixture was subjected to reaction at 37° C. for 30 minutes. Subsequently, 400 μL of a 25 mM citric acid solution was added to quench the reaction and Pz-Pro-Leu in the reaction mixture was extracted with 2 mL of ethyl acetate. The resulting ethyl acetate layer was measured for absorbance at a wavelength of 320 nm, with ethyl acetate being used as a control. The inhibitory activity of each sample was calculated in terms of the percent inhibition determined by the following formula: Percent collagenase inhibition (%)={1−(a−b)/(c−d)}×100 […]
a: Absorbance after […] reaction in the presence of added sample b: Absorbance after […] reaction in the presence of added sample c: Absorbance after 30 min reaction in the absence of added sample d: Absorbance after 0 min reaction in the absence of added sample.

The target of the next assay is T1, elastase (Sus scrofa, UniProt P00772).
T1 construct: purchased Sigma
T1 sequence (P00772 27-266): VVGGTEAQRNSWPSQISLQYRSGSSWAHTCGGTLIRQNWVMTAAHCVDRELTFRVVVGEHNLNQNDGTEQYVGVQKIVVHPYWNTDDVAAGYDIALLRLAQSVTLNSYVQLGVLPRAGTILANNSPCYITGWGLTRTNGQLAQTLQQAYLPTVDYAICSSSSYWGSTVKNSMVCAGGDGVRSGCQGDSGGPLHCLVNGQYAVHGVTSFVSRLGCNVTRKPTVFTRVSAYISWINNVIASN
As to the kind of experiment: Elastase inhibition test. The conditions noted are these: for elastase inhibiting activity (in words): statement in the text. As for the experimental part:
The blue rose petal extract, fractions thereof as products of treatment on a column (60% acetonitrile fractions), rosadelphin A1, rosacyanin A1, and tellimagrandin 1 were subjected to an elastase inhibition test that was performed by the following method.
An enzyme solution was prepared by dissolving 0.1 ml of elastase (product of Sigma) in 0.2 M Tris buffer at pH 8.0 (hereinafter referred to as a Tris buffer) to give a concentration of 0.05 units/mL and diluted 100 folds just before use. A substrate solution was prepared by dissolving N-Succinyl-Ala-Ala-Ala-p-nitroanilide (product of Sigma) in a Tris buffer to give a concentration of 4 mM. To a 96-well plate, 50 μL of a solution of each sample dissolved in 10% DMSO and 50 μL of the enzyme solution were added and after mixing them with a plate shaker, the resulting mixture was preheated at 25° C. for 10 minutes. Subsequently, 100 μL of the substrate solution was added and after mixing with a plate shaker, reaction was carried out at 25° C. for 30 minutes and immediately thereafter, the liberation of p-nitroaniline was assayed by measuring the absorbance at a wavelength of 405 nm (hereinafter designated as A405). A405 measurement was also performed for a blank of sample solution that was prepared by adding a Tris buffer in place of the substrate solution, as well as for a control solution that was prepared by adding 10% DMSO in place of the sample solution. The inhibitory activity of each sample was calculated in terms of the percent inhibition determined by the following formula: Percent elastase inhibition (%)=[(f−e)−{(b−a)−(d−c)}]/(f−e)×100 […]
a: A405(0 min) of the sample solution for enzymatic reaction b: A405(30 min) of the sample solution for enzymatic reaction c: A405(0 min) of the blank of sample solution d: A405(30 min) of the blank of sample solution e: A405(0 min) of the control solution f: A405(30 min) of the control solution.

Setting [1] is: Table 3, test concentration 80 μg/ml.
Where [2] appears, read: Table 6, test concentration 40 μg/ml.
Where [3] appears, read: Table 8, test concentration 40 μg/mL.
Where [4] appears, read: Table 8, test concentration 80 μg/mL.
The mark [5] stands for this setting: Table 8, test concentration 160 μg/mL.

≈ marks a conversion by molar mass, not a printed value. Entries after “also recorded” stand apart in the source; their conditions may differ.

hyaluronidase, sequence (Q2YDK3 entry or part of it): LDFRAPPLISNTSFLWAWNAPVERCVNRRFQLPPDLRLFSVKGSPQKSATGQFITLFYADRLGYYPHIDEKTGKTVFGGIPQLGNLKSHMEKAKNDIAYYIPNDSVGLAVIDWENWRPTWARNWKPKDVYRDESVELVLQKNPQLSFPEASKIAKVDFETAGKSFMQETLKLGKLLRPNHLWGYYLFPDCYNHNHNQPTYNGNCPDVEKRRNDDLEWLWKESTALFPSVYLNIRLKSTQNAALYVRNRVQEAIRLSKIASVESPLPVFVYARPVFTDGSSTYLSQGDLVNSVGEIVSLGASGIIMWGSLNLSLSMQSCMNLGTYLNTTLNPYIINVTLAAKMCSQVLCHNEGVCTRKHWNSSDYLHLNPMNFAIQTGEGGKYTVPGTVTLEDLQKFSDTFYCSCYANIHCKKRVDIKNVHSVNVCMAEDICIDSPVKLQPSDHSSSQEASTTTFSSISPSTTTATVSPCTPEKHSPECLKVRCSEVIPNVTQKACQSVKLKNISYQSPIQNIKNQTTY

For the compound `O=C([O-])c1cc(=O)c2c(OCC(O)COc3cccc4oc(C(=O)[O-])cc(=O)c34)cccc2o1.[Na+].[Na+]` [DSCG, sodium chromoglycate, reference compound], the “Percent hyaluronidase inhibition (%)” value at hyaluronidase (Table 3, positive control at 160 μg/ml) was “* Percent inhibition by 160 μg/ml DSCG: 22.3%”.
For `O=C(O[C@H]1[C@@H]2OC(=O)c3cc(O)c(O)c(O)c3-c3c(cc(O)c(O)c3O)C(=O)OC[C@H]2OC(O)[C@@H]1OC(=O)c1cc(O)c(O)c(O)c1)c1cc(O)c(O)c(O)c1` (some centres unmarked) [Tellimagrandin 1, tellimagrandin 1, reference compound], the “IC50 (hyaluronidase inhibition)” value against hyaluronidase (Table 3) amounted to 196.5 µg/mL (≈ 250 µM). The “Percent hyaluronidase inhibition (%)” value on hyaluronidase (setting [1]) turned out to be 64.8%. The “hyaluronidase inhibitory activity (in words)” value on hyaluronidase is “also active, though not so active as rosadelphin A1”. Besides, the “Percent collagenase inhibition (%)” value with collagenase Type IV (setting [2]) is recorded as 42.7%. Moreover, in the assay with collagenase Type IV, the “collagenase inhibitory activity (in words)” value was “greater activity than the blue rose petal extract”. Further, the entries for the “Percent elastase inhibition (%)” value at elastase (setting [3]), on elastase (setting [4]) and on elastase (setting [5]) were 5.9%, 4.6% and 6.5%, respectively. The figures for the “elastase inhibiting activity (in words)” value at elastase and at elastase (listed as tellimagrandin 1) were “weak activity” and “little activity”, respectively.
As for `O=C(OC1C(O)OC2COC(=O)c3cc(Oc4c(-c5cc(O)c(O)c(O)c5)[o+]c5cc(O)cc6c5c4-c4c(C(=O)O)cc(O)c(O)c4O6)c(O)c(O)c3-c3c(cc(O)c(O)c3O)C(=O)OC2C1OC(=O)c1cc(O)c(O)c(O)c1)c1cc(O)c(O)c(O)c1` (centres unmarked) [Rosadelphin A1, rosadelphin A1], the inhibition (usually the percentage by which the read-out fell short of the control) at 20 µg/mL at hyaluronidase (Table 3) was determined as 24.4%. The inhibition at 40 µg/mL was found to be 48.2% on hyaluronidase (Table 3) and 50.7% on elastase (Table 8, test concentration 40 μg/mL, read-out: Percent elastase inhibition (%)). Moreover, the inhibition at 80 µg/mL at hyaluronidase (setting [1]) amounted to 95.3%; at elastase (Table 8, test concentration 80 μg/mL, read-out: Percent elastase inhibition (%)), 58.1%. Further, the “hyaluronidase inhibitory activity (in words)” value on hyaluronidase (listed as rosadelphin A1) is “strong activity in a concentration dependent manner; also recorded: strong hyaluronidase inhibitory activity”. Also, the “Percent collagenase inhibition (%)” value in the assay on collagenase Type IV (setting [2]) was determined as 42.3%. For the same compound, the “collagenase inhibitory activity (in words)” value in the assay with collagenase Type IV is recorded as “greater activity than the blue rose petal extract”. Also, the “Percent elastase inhibition (%)” value on elastase (setting [3]) is reported as 31.8%; on elastase (setting [4]) it was 40.4%; on elastase (setting [5]), 49.4%. Moreover, the inhibition at 160 µg/mL at elastase (Table 8, test concentration 160 μg/mL, read-out: Percent elastase inhibition (%)) was determined as 62%. For the same compound, the “elastase inhibiting activity (in words)” value at elastase is reported as “comparable or more than comparable activity to rosacyanin A1”; at elastase (listed as rosadelphin A1) it was “strong activity in a concentration dependent manner”.
On to `CC(C)CCP(=O)([O-])NCC(=O)N1CCCC1C(=O)NC(C)C(=O)[O-].[K+].[K+]` [IP304, isoamylphosphonyl-Glycyl-L-Prolyl-L-Alanine, dipotassium salt, reference compound], for which the “Percent collagenase inhibition (%)” value with collagenase Type IV (Table 5, test concentration 80 μg/mL) was “* Percent inhibition by 80 μg/mL IP304: 84.1%”; in the assay on collagenase Type IV (setting [2]), “*Percent inhibition by 40 μg/ml IP304: 69.7%”.
With `O=C(OC1C(O)OC2COC(=O)c3cc(Oc4c(-c5ccc(O)c(O)c5)[o+]c5cc(O)cc6c5c4-c4c(C(=O)O)cc(O)c(O)c4O6)c(O)c(O)c3-c3c(cc(O)c(O)c3O)C(=O)OC2C1OC(=O)c1cc(O)c(O)c(O)c1)c1cc(O)c(O)c(O)c1` (centres unmarked) [Rosacyanin A1, rosacyanin A1], at hyaluronidase (Table 3), the inhibition at 20 µg/mL was determined as 24.7% and the inhibition at 40 µg/mL is 49.1%. The inhibition at 80 µg/mL at hyaluronidase (setting [1]) is 93.2%. The “hyaluronidase inhibitory activity (in words)” value on hyaluronidase was “comparable activity to rosadelphin A1”. Besides, at hyaluronidase (listed as rosacyanin A1), the “hyaluronidase inhibitory activity (in words)” value is listed as “strong hyaluronidase inhibitory activity”. Besides, the “Percent collagenase inhibition (%)” value in the assay on collagenase Type IV (setting [2]) was determined as 52.0%. Further, in the assay on collagenase Type IV, the “collagenase inhibitory activity (in words)” value is given as “greater activity than the blue rose petal extract”. Besides, the “elastase inhibiting activity (in words)” value at elastase was “strong activity”.

The record behind these values is patent publication US10105313B2, “Uses of rose pigment compounds” (SUNTORY HOLDINGS LIMITED, priority 2014, dated 2018).
